Experiments:
[1] = tested on: P388 lymphocytic leukemia (PS system) cell line; details: cited from earlier work
[2] = synthetic Dolastatin 15; cited from earlier work
[3] = tested on: HT-29 colon carcinoma cells; assay: Cytotoxicity, microculture tetrazolium assay (MTT), HT-29 cell system; type: cell-based; details: 48 hours incubation, T/C of 50% growth inhibition
Method: Cytotoxicity was measured using standard methodology for adherent cell lines, such as the microculture tetrazolium assay (MTT). Details of this assay have been published (Alley, M. C., et al., Cancer Research, 48: 589-601,(1988)). Exponentially growing cultures of HT-29 colon carcinoma cells were used to make microtiter plate cultures. Cells were seeded at 5000-20,000 cells per well in 96-well plates (in […] of media), and grown overnight at 37° C. Test compounds were added, in 10-fold dilutions varying from 10^-4 M to 10^-10 M. Cells were then incubated for 48 hours. To determine the number of viable cells in each well, the MTT dye was added ([…] of a 3 mg/ml solution of 3-(4,5-dimethylthiazol-2-yl)-2,5-diphenyltetrazolium bromide in saline). This mixture was incubated at 37° C. for 5 hours, and then […] of 25% SDS, pH 2, was added to each well. After an overnight incubation, the absorbance of each well at 550 nm was read using an ELISA reader. The values for the mean ±SD of data from replicated wells were calculated, using the formula % T/C (% viable cells treated/control). The concentration of test compound which gives a T/C of 50% growth inhibition was designated as the IC50.
Table 9, below, presents the IC50 values determined in the HT-29 cell system: […]

Molecule	inhibition of growth of P388 lymphocytic leukemia cell line [1]	solubility in aqueous systems [2]	IC50 [3] [nM]
Dolastatin 15	markedly inhibits the growth	poor solubility in aqueous systems	–
COc1ccc(C(=O)[C@@H]2CCCN2C(=O)[C@@H]2CCCN2C(=O)[C@H](C(C)C)N(C)C(=O)[C@@H](NC(=O)[C@H](C(C)C)N(C)C)C(C)C)cc1 [Compound I-22, (S)-(Me2 Val-Val-MeVal-Pro-pyrrolidin-2-yl)-(4-methoxyphenyl) ketone]	–	–	> 1000
2-[(S)-(Me2 Val-Val-MeVal-Pro-pyrorolidin-2-yl)]-5-phenyloxazole [III-12]	–	–	900
CC(C)[C@H](NC(=O)[C@H](C(C)C)N(C)C)C(=O)N(C)[C@H](C(=O)N1CCC[C@H]1C(=O)N1CCC[C@H]1C(=O)c1ccc(F)cc1)C(C)C [Compound I-32, (S)-(Me2Val-Val-MeVal-Pro-pyrrolidin-2-yl)-(4-fluorophenyl) ketone]	–	–	> 1000
CC(=O)[C@@H]1CCCN1C(=O)[C@@H]1CCCN1C(=O)[C@H](C(C)C)N(C)C(=O)[C@@H](NC(=O)[C@H](C(C)C)N(C)C)C(C)C [Compound I-1, (S)-(Me2 Val-Val-MeVal-Pro-pyrrolidin-2-yl)-methylketone]	–	–	> 1000
COCC(=O)[C@@H]1CCCN1C(=O)[C@@H]1CCCN1C(=O)[C@H](C(C)C)N(C)C(=O)[C@@H](NC(=O)[C@H](C(C)C)N(C)C)C(C)C [Compound I-12, (S)-(Me2 Val-Val-MeVal-Pro-pyrrolidin-2-yl)methoxy-methylketone]	–	–	400
(S)-(Me2Val-Val-MeVal-Pro-pyrrolidin-2-yl)-trifluoromethyl-ketone [Compound I-54]	–	–	> 1000
2-[(S)-(Me2 Val-Val-MeVal-Pro-pyrrolidin-2-yl)]-3,4-dimethyl-thiazole [III-28]	–	–	400
CCCCC(=O)[C@@H]1CCCN1C(=O)[C@@H]1CCCN1C(=O)[C@H](C(C)C)N(C)C(=O)[C@@H](NC(=O)[C@H](C(C)C)N(C)C)C(C)C [Compound I-5, (S)-(Me2 Val-Val-MeVal-Pro-pyrrolidin-2-yl)butylketone]	–	–	> 1000
